Assay [1] addresses T1, human JAK1 (a.a. 837-1142) (Homo sapiens, UniProt P23458).
T1 construct: human JAK1 (a.a. 837-1142); His tag (N); made in house; host or cells: insect cells (baculovirus)
Description: In vitro JAK kinase assay (HTRF, phosphorylation of a biotinylated peptide), JAK1. It counts as biochemical. As for the experimental part:
(§1) Compounds herein were tested for inhibitory activity of JAK targets according to the following in vitro assay described in Park et al., Analytical Biochemistry 1999, 269, 94-104. The catalytic domains of human JAK1 (a.a. 837-1142), Jak2 (a.a. 828-1132) and Jak3 (a.a. 781-1124) with an N-terminal His tag were expressed using baculovirus in insect cells and purified. The catalytic activity of JAK1, JAK2 or JAK3 was assayed by measuring the phosphorylation of a biotinylated peptide. The phosphorylated peptide was detected by homogenous time resolved fluorescence (HTRF). IC50s of compounds were measured for each kinase in the 40 microL reactions that contain the enzyme, ATP and 500 nM peptide in 50 mM Tris (pH 7.8) buffer with 100 mM NaCl, 5 mM DTT, and 0.1 mg/mL (0.01%) BSA. The ATP concentration in the reactions was 90 μM for Jak1, 30 μM for Jak2 and 3 μM for Jak3 for Km conditions. For the 1 mM IC50 measurements, ATP concentration in the reactions was 1 mM. Reactions were carried out at RT for 1 h and then stopped with 20 μL 45 mM EDTA, 300 nM SA-APC, 6 nM Eu-Py20 in assay buffer (Perkin Elmer, Boston, Mass.). Binding to the Europium labeled antibody took place for 40 min and HTRF signal was measured on a Fusion plate reader (Perkin Elmer, Boston, Mass.).
(§2) Compounds herein were tested for inhibitory activity of JAK1 and JAK2 targets according to the assay of Example A (experiments run at Km or 1 mM as indicated). The symbol “+” indicates an IC50<50 nM; the symbol “++” indicates an IC50≧50 and ≦100 nM; and the symbol “+++” indicates an IC50>100 and ≦500 nM.

The next assay deals with T2, Jak2 (a.a. 828-1132) (Homo sapiens, UniProt O60674).
T2 construct: Jak2 (a.a. 828-1132); His tag (N); made in house; host or cells: insect cells (baculovirus)
As to the kind of experiment: In vitro JAK kinase assay (HTRF, phosphorylation of a biotinylated peptide), JAK2, reported as JAK2/JAK1 ratio. It counts as biochemical. As for the experimental part: as §1, §2

The mark [2] stands for this setting: Assay Conditions Km (ATP 90 μM for Jak1).
Where [3] appears, read: Assay Conditions Km (ATP 90 μM for Jak1, 30 μM for Jak2).

These results are taken from US8716303B2, “N-(hetero)aryl-pyrrolidine derivatives of pyrazol-4-yl-pyrrolo[2,3-d]pyrimidines and pyrrol-3-yl-pyrrolo[2,3-d]pyrimidines as janus kinase inhibitors” (Incyte Corporation, priority 2009, dated 2014).

Each structure is given as a SMILES string. pIC50: −log10 of the molar value. Where a name gives a salt, the structure may show the parent alone.

T2 sequence (O60674 828-1132): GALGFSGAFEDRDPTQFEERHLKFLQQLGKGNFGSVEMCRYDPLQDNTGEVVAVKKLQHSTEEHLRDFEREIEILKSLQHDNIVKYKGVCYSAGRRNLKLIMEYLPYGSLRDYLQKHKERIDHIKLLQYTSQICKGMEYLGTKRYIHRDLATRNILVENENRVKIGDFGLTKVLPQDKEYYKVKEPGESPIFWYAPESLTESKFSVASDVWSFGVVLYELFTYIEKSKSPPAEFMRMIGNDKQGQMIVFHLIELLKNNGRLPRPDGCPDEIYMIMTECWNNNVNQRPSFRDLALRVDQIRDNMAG
T1 sequence (P23458 849-1154): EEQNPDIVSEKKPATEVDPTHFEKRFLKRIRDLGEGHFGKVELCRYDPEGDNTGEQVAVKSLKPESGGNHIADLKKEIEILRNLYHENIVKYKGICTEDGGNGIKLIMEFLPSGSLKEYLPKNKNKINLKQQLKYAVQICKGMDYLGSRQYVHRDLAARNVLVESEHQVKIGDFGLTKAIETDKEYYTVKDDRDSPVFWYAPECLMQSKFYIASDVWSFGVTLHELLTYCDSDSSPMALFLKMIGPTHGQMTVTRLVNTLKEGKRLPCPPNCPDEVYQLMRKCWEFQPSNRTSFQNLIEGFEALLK

Regarding `N#CCC(C1CCN(c2nc(Br)cs2)C1)n1cc(-c2ncnc3[nH]ccc23)cn1` (stereo not shown) [Example 5, 3-[1-(4-bromo-1,3-thiazol-2-yl)pyrrolidin-3-yl]-3-[4-(7H-pyrrolo[2,3-d]pyrimidin-4-yl)-1H-pyrazol-1-yl]propanenitrile trifluoroacetate], the pIC50 in assay [1] (setting [2]) is greater than 7.30. Besides, the “JAK2/JAK1 IC50 ratio” value on Jak2 (a.a. 828-1132) (setting [3]) came to 2.2.
Consider `CS(=O)(=O)c1cccc(N2CCC(C(CC#N)n3cc(-c4ncnc5[nH]ccc45)cn3)C2)n1` (single isomer, unassigned) [Example 26, 3-{1-[6-(methylsulfonyl)pyridin-2-yl]pyrrolidin-3-yl}-3-[4-(7H-pyrrolo[2,3-d]pyrimidin-4-yl)-1H-pyrazol-1-yl]propanenitrile], for which the pIC50 in assay [1] (Assay Conditions 1 mM ATP) is 7.00 to 7.30. Also, the “JAK2/JAK1 IC50 ratio” value at Jak2 (a.a. 828-1132) (Assay Conditions 1 mM ATP) was 5.2.
The matching figures for `N#CCC(C1CCN(c2nccc(C#N)c2C#N)C1)n1cc(-c2ncnc3[nH]ccc23)cn1` (racemic) [Example 39, ±2-(3-{2-cyano-1-[4-(7H-pyrrolo[2,3-d]pyrimidin-4-yl)-1H-pyrazol-1-yl]ethyl}pyrrolidin-1-yl)pyridine-3,4-dicarbonitrile trifluoroacetate]: greater than 7.30 and 15.5.
In turn, `N#CCC(n1cc(-c2ncnc3[nH]ccc23)cn1)C1(F)CCN(c2nc3cccnc3o2)C1` (single isomer, unassigned) [31, Step 4b, enantiomer 1] showed a pIC50 in assay [1] (Assay Conditions 1 mM ATP) of 6.30 to 7.00. For the same compound, at Jak2 (a.a. 828-1132) (Assay Conditions 1 mM ATP), the “JAK2/JAK1 IC50 ratio” value was greater than 2.5.
In the case of `N#CC[C@@H]([C@H]1CCN(c2nccc(I)c2C#N)C1)n1cc(-c2ncnc3[nH]ccc23)cn1` [Example 122, 2-((3S)-3-{(1S)-2-cyano-1-[4-(7H-pyrrolo[2,3-d]pyrimidin-4-yl)-1H-pyrazol-1-yl]ethyl}pyrrolidin-1-yl)-4-iodonicotinonitrile trifluoroacetate], the pIC50 in assay [1] (Assay Conditions 1 mM ATP) is greater than 7.30. In addition, at Jak2 (a.a. 828-1132) (Assay Conditions 1 mM ATP), the “JAK2/JAK1 IC50 ratio” value is recorded as 188.0.
As for `N#CCC(C1CCN(c2nc3ncccc3o2)C1)n1cc(-c2ncnc3[nH]ccc23)cn1` (single isomer, unassigned) [Example 12, 3-(1-[1,3]oxazolo[4,5-b]pyridin-2-ylpyrrolidin-3-yl)-3-[4-(7H-pyrrolo[2,3-d]pyrimidin-4-yl)-1H-pyrazol-1-yl]propanenitrile], the pIC50 in assay [1] (setting [2]) was greater than 7.30. On Jak2 (a.a. 828-1132) (setting [3]), the “JAK2/JAK1 IC50 ratio” value is listed as 2.4.
For `CCS(=O)(=O)c1ccc(F)c(N2CC[C@H]([C@H](CC#N)n3cc(-c4ncnc5[nH]ccc45)cn3)C2)n1` [Example 93, (3S)-3-{(3S)-1-[6-(ethylsulfonyl)-3-fluoropyridin-2-yl]pyrrolidin-3-yl}-3-[4-(7H-pyrrolo[2,3-d]pyrimidin-4-yl)-1H-pyrazol-1-yl]propanenitrile trifluoroacetate], the pIC50 in assay [1] (Assay Conditions 1 mM ATP) is greater than 7.30. Besides, the “JAK2/JAK1 IC50 ratio” value at Jak2 (a.a. 828-1132) (Assay Conditions 1 mM ATP) is listed as 5.3.
As to `N#CCC(C1CCN(c2ncc3ccoc3c2C#N)C1)n1ccc(-c2ncnc3[nH]ccc23)c1` (racemic) [Example 170-rac, 6-(3-{2-cyano-1-[3-(7H-pyrrolo[2,3-d]pyrimidin-4-yl)-1H-pyrrol-1-yl]ethyl}pyrrolidin-1-yl)furo[3,2-c]pyridine-7-carbonitrile], the pIC50 in assay [1] (Assay Conditions 1 mM ATP) was greater than 7.30. Moreover, the “JAK2/JAK1 IC50 ratio” value on Jak2 (a.a. 828-1132) (Assay Conditions 1 mM ATP) turned out to be 4.5.
The matching figures for `N#CCC(C1CCN(c2nc3cccc(F)c3o2)C1)n1ccc(-c2ncnc3[nH]ccc23)c1` (single isomer, unassigned) [Example 158-2, 3-[1-(7-fluoro-1,3-benzoxazol-2-yl)pyrrolidin-3-yl]-3-[3-(7H-pyrrolo[2,3-d]pyrimidin-4-yl)-1H-pyrrol-1-yl]propanenitrile]: greater than 7.30 and 19.0.
The matching figures for `COc1cccc2nc(N3CCC(C(CC#N)n4cc(-c5ncnc6[nH]ccc56)cn4)C3)oc12` (single isomer, unassigned) [Example 162, 3-[1-(7-methoxy-1,3-benzoxazol-2-yl)pyrrolidin-3-yl]-3-[4-(7H-pyrrolo[2,3-d]pyrimidin-4-yl)-1H-pyrazol-1-yl]propanenitrile]: greater than 7.30 and 7.7.
On to `N#CCC(C1CCN(c2nc3cccnc3o2)C1)n1cc(-c2ncnc3[nH]ccc23)cn1` (single isomer, unassigned) [Example 13a, 3-(1-[1,3]oxazolo[5,4-b]pyridin-2-ylpyrrolidin-3-yl)-3-[4-(7H-pyrrolo[2,3-d]pyrimidin-4-yl)-1H-pyrazol-1-yl]propanenitrile], for which the pIC50 in assay [1] (setting [2]) was greater than 7.30. Further, the “JAK2/JAK1 IC50 ratio” value at Jak2 (a.a. 828-1132) (setting [3]) worked out at 12.
In assay [1] (Assay Conditions 1 mM ATP), `N#CC[C@@H]([C@H]1CCN(c2nc(F)c(F)cc2F)C1)n1cc(-c2ncnc3[nH]ccc23)cn1` [Example 67, (3S)-3-[4-(7H-pyrrolo[2,3-d]pyrimidin-4-yl)-1H-pyrazol-1-yl]-3-[(3S)-1-(3,5,6-trifluoropyridin-2-yl)pyrrolidin-3-yl]propanenitrile trifluoroacetate salt] had a pIC50 greater than 7.30. In addition, on Jak2 (a.a. 828-1132) (Assay Conditions 1 mM ATP), the “JAK2/JAK1 IC50 ratio” value is listed as 5.6.
The compound `N#CCC(C1CCN(c2ccc3c(n2)S(=O)(=O)CC3)C1)n1ccc(-c2ncnc3[nH]ccc23)c1` (single isomer, unassigned) [34, enantiomer 1] gave a pIC50 in assay [1] (Assay Conditions 1 mM ATP) greater than 7.30. Also, at Jak2 (a.a. 828-1132) (Assay Conditions 1 mM ATP), the “JAK2/JAK1 IC50 ratio” value is 5.6.
`CS(=O)(=O)c1nc(N2CC[C@H](C(CF)n3cc(-c4ncnc5[nH]ccc45)cn3)C2)c(F)cc1F` (stereo partly drawn) [Example 132, 4-[1-(1-{(3S)-1-[3,5-difluoro-6-(methylsulfonyl)pyridin-2-yl]pyrrolidin-3-yl}-2-fluoroethyl)-1H-pyrazol-4-yl]-7H-pyrrolo [2,3-d]pyrimidine trifluoroacetate] had a pIC50 in assay [1] (Assay Conditions 1 mM ATP) greater than 7.30. At Jak2 (a.a. 828-1132) (Assay Conditions 1 mM ATP), the “JAK2/JAK1 IC50 ratio” value turned out to be 8.9.
In the case of `N#CC[C@@H]([C@H]1CCN(c2nc3ccsc3cc2C#N)C1)n1cc(-c2ncnc3[nH]ccc23)cn1` [Example 75, 5-((3S)-3-{(1S)-2-cyano-1-[4-(7H-pyrrolo[2,3-d]pyrimidin-4-yl)-1H-pyrazol-1-yl]ethyl}pyrrolidin-1-yl)thieno[3,2-b]pyridine-6-carbonitrile], the pIC50 in assay [1] (Assay Conditions 1 mM ATP) was greater than 7.30. The “JAK2/JAK1 IC50 ratio” value on Jak2 (a.a. 828-1132) (Assay Conditions 1 mM ATP) came to 4.6.
The compound `N#CCC(C1CCN(c2nc3cc(Cl)ccc3o2)C1)n1cc(-c2ncnc3[nH]ccc23)cn1` (single isomer, unassigned) [Example 10, 3-[1-(5-chloro-1,3-benzoxazol-2-yl)pyrrolidin-3-yl]-3-[4-(7H-pyrrolo[2,3-d]pyrimidin-4-yl)-1H-pyrazol-1-yl]propanenitrile] showed a pIC50 in assay [1] (setting [2]) greater than 7.30. On Jak2 (a.a. 828-1132) (setting [3]), the “JAK2/JAK1 IC50 ratio” value turned out to be 1.9.
Regarding `CCc1cnc(N2CC[C@H]([C@H](CC#N)n3cc(-c4ncnc5[nH]ccc45)cn3)C2)c(C#N)n1` [Example 144, 3-((3S)-3-{(1S)-2-cyano-1-[4-(7H-pyrrolo[2,3-d]pyrimidin-4-yl)-1H-pyrazol-1-yl]ethyl}pyrrolidin-1-yl)-6-ethylpyrazine-2-carbonitrile trifluoroacetate], the pIC50 in assay [1] (Assay Conditions 1 mM ATP) is greater than 7.30. The “JAK2/JAK1 IC50 ratio” value on Jak2 (a.a. 828-1132) (Assay Conditions 1 mM ATP) is reported as greater than 6.9.
The matching figures for `Cn1cc(Cl)nc(N2CCC(C(CC#N)n3cc(-c4ncnc5[nH]ccc45)cn3)C2)c1=O` (racemic) [Example 36, ±3-[1-(6-chloro-4-methyl-3-oxo-3,4-dihydropyrazin-2-yl)pyrrolidin-3-yl]-3-[4-(7H-pyrrolo[2,3-d]pyrimidin-4-yl)-1H-pyrazol-1-yl]propanenitrile trifluoroacetate]: 7.00 to 7.30 and 6.
With `COCc1cnc(N2CC[C@H]([C@H](CC#N)n3cc(-c4ncnc5[nH]ccc45)cn3)C2)c(C#N)n1` [Example 141, 3-((3S)-3-{(1S)-2-cyano-1-[4-(7H-pyrrolo[2,3-d]pyrimidin-4-yl)-1H-pyrazol-1-yl]ethyl}pyrrolidin-1-yl)-6-(methoxymethyl)pyrazine-2-carbonitrile trifluoroacetate], the pIC50 in assay [1] (Assay Conditions 1 mM ATP) is greater than 7.30. Moreover, on Jak2 (a.a. 828-1132) (Assay Conditions 1 mM ATP), the “JAK2/JAK1 IC50 ratio” value is on record as 16.2.
Turning to `N#CC[C@@H]([C@H]1CCN(c2nc(Cl)c(F)cc2NC=O)C1)n1cc(-c2ncnc3[nH]ccc23)cn1` [Example 92, N-(2-((S)-3-((S)-1-(4-(7H-pyrrolo[2,3-d]pyrimidin-4-yl)-1H-pyrazol-1-yl)-2-cyanoethyl)pyrrolidin-1-yl)-6-chloro-5-fluoropyridin-3-yl)formamide trifluoroacetate], the pIC50 in assay [1] (Assay Conditions 1 mM ATP) is greater than 7.30.
Same read-out and setting: under `N#CC[C@@H]([C@H]1CCN(c2ncc(CC(F)F)nc2C#N)C1)n1cc(-c2ncnc3[nH]ccc23)cn1` [Example 139, 3-((3S)-3-{(1S)-2-cyano-1-[4-(7H-pyrrolo[2,3-d]pyrimidin-4-yl)-1H-pyrazol-1-yl]ethyl}pyrrolidin-1-yl)-6-(2,2-difluoroethyl)pyrazine-2-carbonitrile trifluoroacetate] stands greater than 7.30.
